Source: EP2065370A1, “2-cyanobenzene sulfonamides as pesticides” (Bayer CropScience AG, priority 2007, dated 2009)

System: Meloidogyne incognita
Test: Meloidogyne test (MELGIN spray treatment)
Assay type: in vivo
Conditions: 20 ppm; sand with egg-larvae suspension and lettuce seeds; 100 % = no galls found
From the text: Meloidogyne-Test (MELGIN Spritzbehandlung)
Zur Herstellung einer zweckmäßigen Wirkstoffzubereitung vermischt man 1 Gewichtsteil Wirkstoff mit der angegebenen Menge Lösungsmittel und verdünnt das Konzentrat mit Wasser auf die gewünschte Konzentration.
Gefäße werden mit Sand, Wirkstofflösung, Meloidogyne incognita-Ei-Larven-Suspension und Salatsamen gefüllt. Die Salatsamen keimen und die Pflänzchen entwickeln sich. An den Wurzeln entwickeln sich die Gallen.
Nach der gewünschten Zeit wird die nematizide Wirkung an Hand der Gallenbildung in % bestimmt. Dabei bedeutet 100 %, dass keine Gallen gefunden wurden; 0 % bedeutet, dass die Zahl der Gallen an den behandelten Pflanzen der der unbehandelten Kontrolle entspricht.
Bei diesem Test zeigen z. B. die folgenden Verbindungen der Herstellungsbeispiele eine Wirkung von ≥ 80 % bei einer Aufwandmenge von 20 ppm: Beispiel Nr. I-1, I-2

| SMILES | nematizide Wirkung an Hand der Gallenbildung |
| --- | --- |
| CN(Cc1ccccn1)S(=O)(=O)c1cccc(F)c1C#N [I-2] | ≥ 80% |
| CN(Cc1ccccn1)S(=O)(=O)c1ccccc1C#N [I-1, 2-Cyano-N-methyl-N-(pyridin-2-ylmethyl)benzolsulfonamid] | ≥ 80% |
